Measurements reported in patent publication US12157755B2, “CD73 inhibitor, preparation method therefor and application thereof” (Abbisko Therapeutics Co., Ltd., priority 2019, dated 2024).

What was measured:
CD73 = target: T1, CD73 (Homo sapiens, UniProt P21589); test: In vitro enzymatic activity against CD73 (malachite green test using soluble CD73); format: biochemical; conditions: soluble CD73 36 ng/mL, 50 μM AMP, 30 minutes at 25° C.
T1 construct: purchased R&D systems 5795-EN-010
T1 sequence (P21589 27-547 limits assumed): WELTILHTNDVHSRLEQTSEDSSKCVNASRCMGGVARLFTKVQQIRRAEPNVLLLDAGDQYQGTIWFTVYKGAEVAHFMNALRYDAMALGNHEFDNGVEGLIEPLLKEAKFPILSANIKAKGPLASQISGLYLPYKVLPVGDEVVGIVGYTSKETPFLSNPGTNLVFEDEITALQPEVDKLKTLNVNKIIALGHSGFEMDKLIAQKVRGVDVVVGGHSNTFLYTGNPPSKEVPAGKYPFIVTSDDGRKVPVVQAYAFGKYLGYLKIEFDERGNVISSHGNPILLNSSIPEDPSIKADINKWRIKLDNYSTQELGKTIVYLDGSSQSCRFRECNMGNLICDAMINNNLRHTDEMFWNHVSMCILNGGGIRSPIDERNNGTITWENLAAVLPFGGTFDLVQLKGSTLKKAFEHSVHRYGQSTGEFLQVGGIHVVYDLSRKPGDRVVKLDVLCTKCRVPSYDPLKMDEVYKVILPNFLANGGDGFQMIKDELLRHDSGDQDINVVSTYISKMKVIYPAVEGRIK
Outline: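 Soluble recombinant CD73 (36 ng/mL) incubated with compound and 50 μM AMP for 30 min at 25 °C in 25 mM Tris pH 7.5, 5 mM MgCl2, 0.005% Tween-20. Released inorganic phosphate read by malachite green; IC50 from non-linear regression of % inhibition.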

[1] = target: T2, CD73 enzymatic activity expressed on the cell surface of MDA-MB-231 cells (Homo sapiens, UniProt P21589); test: Inhibition of CD73 enzymatic activity on the cell surface (Cell Titer Glo (CTG) experiment), MDA-MB-231 cells; format: cell-based; conditions: MDA-MB-231 cells endogenously expressing CD73, AMP, 37° C. for 2 hours, CTG readout; read-out: Cellular activity IC50
T2 construct: Human breast cancer cells MDA-MB-231 that endogenously express CD73 were used; host or cells: MDA-MB-231
T2 sequence (P21589 27-549): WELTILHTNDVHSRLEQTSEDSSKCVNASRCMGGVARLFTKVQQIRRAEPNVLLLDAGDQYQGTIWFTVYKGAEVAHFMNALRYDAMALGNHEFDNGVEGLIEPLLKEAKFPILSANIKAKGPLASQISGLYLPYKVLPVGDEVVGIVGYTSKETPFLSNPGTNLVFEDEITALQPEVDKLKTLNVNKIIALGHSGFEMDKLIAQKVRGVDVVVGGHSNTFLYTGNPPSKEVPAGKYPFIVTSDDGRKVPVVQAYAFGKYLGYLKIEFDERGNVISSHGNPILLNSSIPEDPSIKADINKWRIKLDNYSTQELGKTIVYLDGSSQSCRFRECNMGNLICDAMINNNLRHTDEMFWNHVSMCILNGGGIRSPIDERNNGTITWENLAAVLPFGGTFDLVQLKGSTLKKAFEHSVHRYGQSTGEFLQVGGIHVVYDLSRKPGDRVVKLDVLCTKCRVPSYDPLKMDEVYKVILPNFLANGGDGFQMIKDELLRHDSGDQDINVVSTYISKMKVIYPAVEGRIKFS
Outline: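 MDA-MB-231 cells with endogenous CD73 were washed serum-free, preincubated with compound for 15 min, then given AMP (1.2 mM stock) for 2 h at 37° C. Remaining AMP in the supernatant was read by CellTiter-Glo with added ATP. IC50 came from a four-parameter logistic fit.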

With `O=P(O)(O)CP(=O)(O)OC[C@H]1C[C@@H](c2ccc3c(N[C@@H]4CCc5cc(C(F)(F)F)ccc54)nc(Cl)nn23)[C@H](O)[C@@H]1O` [Example 39, (((((1R,2R,3S,4S)-4-(2-chloro-4-(((R)-5-(trifluoromethyl)-2,3-dihydro-1H-inden-1-yl)amino)pyrrolo[2,1-f][1,2,4]triazin-7-yl)-2,3-dihydroxycyclopentyl)methoxy)(hydroxy)phosphoryl)methyl)phosphonic acid] as the compound, how does the IC50 (CD73) read?
Its IC50 is 0.063 µM.

What about the IC50 [1] of the same compound?
Its IC50 is 0.000743 µM.
